Measured values reported in article PMC9697025, “Discovery of N-Containing (-)-Borneol Esters as Respiratory Syncytial Virus Fusion Inhibitors” (Pharmaceuticals, 2022).

Tests used:
Vaccinia virus = settings: CC50/IC50VACV ref 16; cited from earlier work
[1] = MTT cytotoxicity assay with non-infected HEp2 cells; settings: human
RSV A strain A2 = experiment: In vitro antiviral assay against RSV A strain A2 in HEp-2 cells (ELISA, virus titer); assay type: cell-based, respiratory syncytial virus; settings: for IC50: human respiratory syncytial virus, HEp-2, 50% decrease in virus replication, RSV A strain A2 in HEp-2 cells, mean ± SD; for SI: selectivity index, CC50/IC50 ratio, RSV A2 / HEp-2
rVSV-ΔG-MarV-GP = settings: CC50/IC50MarV-GP, HEK293T cells ref 12,13; cited from earlier work
rVSV-ΔG-EboV-GP = settings: CC50/IC50EboV-GP, HEK293T cells ref 12,13; cited from earlier work
[2] = tested on: A/Puerto Rico/8/34 (H1N1) virus; parameters: method as in PMID 30108810; settings: CC50/IC50H1N1, A/Puerto Rico/8/34 (H1N1) ref 15; cited from earlier work
RSV = experiment: Temperature shift assay (virus attachment at 4 °C vs post-binding); settings: unbound virus washed away, compound added before shift to 37 °C
RSV A strain = settings: for effect on viral titer, time-of-addition: compound added at 1 h post infection; for inhibitory activity, time-of-addition: compound added at later time points (after 2 h post infection); for time of addition up to which antiviral activity was maintained: post infection

Compound | CC50 at 24 h [1] [µM] | IC50 (RSV A strain A2) [µM] | SI (RSV A strain A2) | further results
CC1(C)[C@H]2CC[C@]1(C)[C@H](OC(=O)CCCN1CCOCC1)C2 [Compound 5c] | 307 ± 24.1 | 5.8 ± 0.9 | 53 | SIVACV (Vaccinia virus): ^d SIVACV = 23
CC1(C)[C@H]2CC[C@]1(C)[C@H](OC(=O)CN1CCCCC1)C2 [Compound 6a] | 129 ± 9.8 | 41.9 ± 3.1 | 3 | –
CC1CCN(CCCC(=O)O[C@@H]2C[C@@H]3CC[C@@]2(C)C3(C)C)CC1 [Compound 7c] | 59.1 ± 4.8 | 19.9 ± 2.3 | 3 | –
CCN(CC)CCCC(=O)O[C@@H]1C[C@@H]2CC[C@@]1(C)C2(C)C [Compound 4c] | 152 ± 12.1 | 30.5 ± 2.9 | 5 | –
CCN(CC)CC(=O)O[C@@H]1C[C@@H]2CC[C@@]1(C)C2(C)C [Compound 4a] | 669 ± 56.4 | 355 ± 51.1 | 2 | –
CC1(C)[C@H]2CC[C@]1(C)[C@H](OC(=O)CCN1CCC(Cc3ccccc3)CC1)C2 [Compound 13b, (1S,2R,4S)-1,7,7-trimethylbicyclo [2.2.1]heptan-2-yl 3-(4-benzylpiperidin-1-yl)propanoate] | 25.5 ± 11.4 | 14.9 ± 1 | 2 | –
CN1CCN(CC(=O)O[C@@H]2C[C@@H]3CC[C@@]2(C)C3(C)C)CC1 [Compound 9a] | 267 ± 16.5 | 13.9 ± 2.4 | 19 | –
CC1(C)[C@H]2CC[C@]1(C)[C@H](OC(=O)CCCN1CCC(Cc3ccccc3)CC1)C2 [Compound 13c, (1S,2R,4S)-1,7,7-trimethylbicyclo [2.2.1]heptan-2-yl 4-(4-benzylpiperidin-1-yl)butanoate] | 40.2 ± 5.1 | 7.3 ± 0.6 | 5 | –
CC1(C)[C@H]2CC[C@]1(C)[C@H](OC(=O)CN1CCN(c3ccccc3)CC1)C2 [Compound 14a, (1S,2R,4S)-1,7,7-Trimethylbicyclo [2.2.1]heptan-2-yl 2-(4-phenylpiperazin-1-yl)acetate] | 26.4 ± 3.8 | 4.6 ± 1.1 | 6 | –
CN1CCN(CC(=O)OC2CC3CCC2(C)C3(C)C)CC1 (stereo not drawn) [I (n=1)] | – | – | – | SIMarV-GP (rVSV-ΔG-MarV-GP): ^a SIMarV-GP = 14; SIEboV-GP (rVSV-ΔG-EboV-GP): ^b SIEboV-GP = 46; SIH1N1 [2]: ^c SIH1N1 = 23
CC1CCN(CCC(=O)O[C@@H]2C[C@@H]3CC[C@@]2(C)C3(C)C)CC1 [Compound 7b] | 159 ± 17.1 | 6.2 ± 2.1 | 26 | –
CC1(C)[C@H]2CC[C@]1(C)[C@H](OC(=O)CCCN1CCN(c3ccccc3)CC1)C2 [Compound 14c, (1S,2R,4S)-1,7,7-trimethylbicyclo [2.2.1]heptan-2-yl 4-(4-phenylpiperazin-1-yl)butanoate] | 23.9 ± 8.7 | 12 ± 2 | 2 | –
CCN1CCN(CCCC(=O)O[C@@H]2C[C@@H]3CC[C@@]2(C)C3(C)C)CC1 [Compound 10c] | 208 ± 21.4 | 9.8 ± 2.5 | 21 | –
CC1(C)[C@H]2CC[C@]1(C)[C@H](OC(=O)CN1CCN(Cc3ccccc3)CC1)C2 [Compound 11a] | 51.3 ± 4.9 | 21.6 ± 2.6 | 2 | –
CC1(C)[C@H]2CC[C@]1(C)[C@H](OC(=O)CN1CCSCC1)C2 [Compound 12a, (1S,2R,4S)-1,7,7-Trimethylbicyclo [2.2.1]heptan-2-yl 2-thiomorpholinoacetate] | 126 ± 10.5 | 69.6 ± 16.2 | 2 | –
CCN1CCN(CCC(=O)OC2CC3CCC2(C)C3(C)C)CC1 (stereo not drawn) [II (n=2)] | – | – | – | SIMarV-GP (rVSV-ΔG-MarV-GP): ^a SIMarV-GP = 47; SIEboV-GP (rVSV-ΔG-EboV-GP): ^b SIEboV-GP = 170; SIH1N1 [2]: ^c SIH1N1 = 12
CN1CCN(CCCC(=O)O[C@@H]2C[C@@H]3CC[C@@]2(C)C3(C)C)CC1 [Compound 9c] | 198 ± 13.6 | 5.1 ± 0.8 | 39 | –
CN(C)CCCC(=O)O[C@@H]1C[C@@H]2CC[C@@]1(C)C2(C)C [Compound 3c] | 228 ± 23.5 | 23.9 ± 3.7 | 10 | –
CC1(C)[C@H]2CC[C@]1(C)[C@H](OC(=O)CCN1CCSCC1)C2 [Compound 12b, (1S,2R,4S)-1,7,7-trimethylbicyclo [2.2.1]heptan-2-yl 3-thiomorpholinopropanoate] | 86 ± 7.4 | 96.3 ± 3.5 | 1 | –
CC1(C)[C@H]2CC[C@]1(C)[C@H](OC(=O)CCCN1CCSCC1)C2 [Compound 12c, (1S,2R,4S)-1,7,7-trimethylbicyclo [2.2.1]heptan-2-yl 4-thiomorpholinobutanoate] | 56.5 ± 3.8 | 75.3 ± 7.9 | 1 | –

Compound | CC50 at 24 h [1] [µM] | IC50 (RSV A strain A2) [µM] | SI (RSV A strain A2) | further results
CC1(C)[C@H]2CC[C@]1(C)[C@H](OC(=O)CCCN1CCCCC1)C2 [Compound 6c] | 117 ± 11.1 | 39 ± 4.1 | 3 | –
CC1(C)[C@H]2CC[C@]1(C)[C@H](OC(=O)CCN1CCCCC1)C2 [Compound 6b] | 326 ± 45.6 | 14.6 ± 1.2 | 22 | anti-RSV activity, temperature shift conditions (B) (RSV): antiviral activity was maintained; effect on viral titer, time-of-addition (RSV A strain): significant reduction in viral titer; inhibitory activity, time-of-addition (RSV A strain): lost their inhibitory activity; time of addition up to which antiviral activity was maintained (RSV A strain): up to 2 h
CC1(C)[C@H]2CC[C@]1(C)[C@H](OC(=O)CCCN1CCCCCC1)C2 [Compound 8c] | 159 ± 12.4 | 34.2 ± 1.1 | 5 | –
CC1(C)[C@H]2CC[C@]1(C)[C@H](OC(=O)CCCN1CCN(Cc3ccccc3)CC1)C2 [Compound 11c] | 82.8 ± 7.9 | 25.1 ± 3.5 | 3 | –
CC1(C)[C@H]2CC[C@]1(C)[C@H](OC(=O)CCN1CCN(Cc3ccccc3)CC1)C2 [Compound 11b] | 49.4 ± 5.6 | 46.8 ± 7.2 | 1 | –
CN(C)CCC(=O)O[C@@H]1C[C@@H]2CC[C@@]1(C)C2(C)C [Compound 3b] | 983 ± 44.2 | 8.9 ± 2.4 | 111 | anti-RSV activity, temperature shift conditions (B) (RSV): antiviral activity was maintained; effect on viral titer, time-of-addition (RSV A strain): significant reduction in viral titer; inhibitory activity, time-of-addition (RSV A strain): lost their inhibitory activity; time of addition up to which antiviral activity was maintained (RSV A strain): up to 2 h
CCN1CCN(CC(=O)OC2CC3CCC2(C)C3(C)C)CC1 (stereo not drawn) [II (n=1)] | – | – | – | SIMarV-GP (rVSV-ΔG-MarV-GP): ^a SIMarV-GP = 29; SIEboV-GP (rVSV-ΔG-EboV-GP): ^b SIEboV-GP = 80; SIH1N1 [2]: ^c SIH1N1 = 16
CN(C)CC(=O)O[C@@H]1C[C@@H]2CC[C@@]1(C)C2(C)C [Compound 3a] | 497 ± 53.2 | 134 ± 19.5 | 4 | –
CN1CCN(CCC(=O)O[C@@H]2C[C@@H]3CC[C@@]2(C)C3(C)C)CC1 [Compound 9b] | 169 ± 12.1 | 17.2 ± 1.9 | 10 | –
CN1CCN(CCC(=O)OC2CC3CCC2(C)C3(C)C)CC1 (stereo not drawn) [I (n=2)] | – | – | – | SIMarV-GP (rVSV-ΔG-MarV-GP): ^a SIMarV-GP = 20; SIEboV-GP (rVSV-ΔG-EboV-GP): ^b SIEboV-GP = 870; SIH1N1 [2]: ^c SIH1N1 = 25
CC1(C)[C@H]2CC[C@]1(C)[C@H](OC(=O)CN1CCC(Cc3ccccc3)CC1)C2 [Compound 13a, (1S,2R,4S)-1,7,7-trimethylbicyclo [2.2.1]heptan-2-yl 2-(4-benzylpiperidin-1-yl)acetate] | 116 ± 13.4 | 21.6 ± 1.8 | 5 | –
CCN(CC)CCC(=O)O[C@@H]1C[C@@H]2CC[C@@]1(C)C2(C)C [Compound 4b] | 391 ± 23.1 | 99.5 ± 8.7 | 4 | –
CCN1CCN(CCC(=O)O[C@@H]2C[C@@H]3CC[C@@]2(C)C3(C)C)CC1 [Compound 10b] | 117 ± 11.7 | 5.9 ± 1.4 | 20 | –
CC1(C)[C@H]2CC[C@]1(C)[C@H](OC(=O)CCCN1CCN(c3ccccc3F)CC1)C2 [Compound 15c, (1S,2R,4S)-1,7,7-trimethylbicyclo [2.2.1]heptan-2-yl 4-(4-(2-fluorophenyl)piperazin-1-yl)butanoate] | 27.8 ± 7.4 | 14.7 ± 2.1 | 2 | –
CC1(C)[C@H]2CC[C@]1(C)[C@H](OC(=O)CCN1CCN(c3ccccc3F)CC1)C2 [Compound 15b, (1S,2R,4S)-1,7,7-trimethylbicyclo [2.2.1]heptan-2-yl 3-(4-(2-fluorophenyl)piperazin-1-yl)propanoate] | 20.1 ± 12.1 | 8.2 ± 0.8 | 2 | –
CCN1CCN(CC(=O)O[C@@H]2C[C@@H]3CC[C@@]2(C)C3(C)C)CC1 [Compound 10a] | 217 ± 18.9 | 57.7 ± 2.2 | 4 | –
CC1(C)[C@H]2CC[C@]1(C)[C@H](OC(=O)CCN1CCCCCC1)C2 [Compound 8b] | 345 ± 24.6 | 97.6 ± 8.9 | 3 | –
CC1(C)[C@H]2CC[C@]1(C)[C@H](OC(=O)CN1CCN(c3ccccc3F)CC1)C2 [Compound 15a, (1S,2R,4S)-1,7,7-trimethylbicyclo [2.2.1]heptan-2-yl 2-(4-(2-fluorophenyl)piperazin-1-yl)acetate] | 27.5 ± 3.8 | 2.7 ± 0.7 | 10 | –
CC1CCN(CC(=O)O[C@@H]2C[C@@H]3CC[C@@]2(C)C3(C)C)CC1 [Compound 7a] | 399 ± 4.8 | 109 ± 10.7 | 4 | –
CC1(C)[C@H]2CC[C@]1(C)[C@H](OC(=O)CN1CCCCCC1)C2 [Compound 8a] | 85.2 ± 5.6 | 61.3 ± 3.2 | 1 | –
